In patent publication US20220175825A1, “COMPOSITION AND ASSOCIATED DELIVERY DEVICE FOR HYDROGEN THERAPY” (UNIVERSITE GRENOBLE ALPES, priority 2019, published 2022):

How the values were obtained:
[1] = cited from earlier work
[2] = kinetics of dihydrogen release on dissolution of a hydride composition in 30 mL PBS solution, according to pH; assay type: physicochemical; conditions: substantially 13 mg hydride in 30 mL PBS
[3] = pH of the PBS solution following dissolution of the hydride; assay type: physicochemical; conditions: after dissolution

Row | SMILES | saturation limit concentration in water [1] [ppm] | required time for reaching the release of about 1 ppm of dihydrogen after immersion ([2]; pH 5.8) | required time for reaching the release of about 1 ppm of dihydrogen after immersion ([2]; pH 7.4) [min] | required time for reaching the release of about 1 ppm of dihydrogen after immersion ([2]; pH 8.45) [min] | pH of the PBS solution following the dissolution of the hydride [3]
1 | [HH] [dihydrogen] | 1.57 | – | – | – | –
2 | [H-].[H-].[Mg+2] [magnesium hydride] | – | about 30 seconds | ~4 | ~5 | 10
